Test results from ChEMBL document CHEMBL3217441, “Aromatic chloride to nitrile transformation: medicinal and synthetic chemistry” (Medchemcomm, 2010).

Legend:
[1] = Inhibition of HIV-1 RDDP after 30 mins by scintillation counting analysis in presence of [3H]-TTP; parameters: species or system Human immunodeficiency virus 1
[2] = Lipophilicity, log D of the compound at pH 7.4; type: physicochemical; settings: buffer
[3] = Half life in human liver microsomes; type: ADME

SMILES	IC50 [1] [nM]	logD [2]	half-life [3] [min]
CCc1nc(C)n(CC)c1Oc1cc(C#N)cc(C#N)c1	131	1.9	101
CCc1nc(C)n(CC)c1Oc1cc(Cl)cc(C#N)c1	18	3.2	16
